Data set [1] concerns increase in the weight of the uterus induced by 17β-estradiol benzoate. The experiment in a line: Anti-estrogen activity in oral administration (suppression of estradiol-induced increase in uterus weight in ovariectomized mice). Type of data set: in vivo. As to conditions: ovariectomized ICR mice, oral 10 mg/kg once a day for 3 days, 17β-estradiol benzoate 0.1 μg s.c. As for the experimental part:
In the test, each of the test compounds and a control compound were suspended in a 5% gum arabic solution and administered to the mice orally in doses of 10 mg/kg on a once-a-day basis for 3 days. Twenty-four hours after the administration of the final dose, the test animals were slaughtered and the uterus was extracted and its weight was measured.

Data set [2] is described as follows: AUC measurement in oral administration, test with mice. The class given is in vivo. The note with it: plasma, 30 mg/kg, 5% gum arabic suspension; for AUC(0-inf): female, ICR, mouse, po; for AUC∞: ICR mice. As for the experimental part:
(§1) The AUC of specified compounds in oral administration was measured by the following tests.
A 5% gum arabic suspension (10 ml/kg) of a test substance (30 mg/kg) was forcibly administered orally into ICR mice (female, 8-10 week old) by means of a mouse stomach probe and after the lapse of specified periods of time (15 minutes, 30 minutes, and 1, 2, 4, 6, 8, 24 and 48 hours), whole blood was taken from the abdominal large vein (n=3 for each time period). The concentration of the test substance in the sampled plasma was measured by HPLC (eluant: acetonitrile/water) and AUC was determined by moment analysis from the average plasma concentration for each time period. The test substances were compound 1, compound 2, compound 4 and compound 5. Two control compounds were used, one being the first component prepared in step 1 of Example 1 (control compound 2) and the other being the second component (control compound 1).

The target of data set [3] is T1, intranuclear estrogen receptor (EgR) (Homo sapiens, UniProt P03372).
T1 construct: endogenous in cells; host or cells: MCF-7 (ATCC)
T1 sequence (P03372 whole entry): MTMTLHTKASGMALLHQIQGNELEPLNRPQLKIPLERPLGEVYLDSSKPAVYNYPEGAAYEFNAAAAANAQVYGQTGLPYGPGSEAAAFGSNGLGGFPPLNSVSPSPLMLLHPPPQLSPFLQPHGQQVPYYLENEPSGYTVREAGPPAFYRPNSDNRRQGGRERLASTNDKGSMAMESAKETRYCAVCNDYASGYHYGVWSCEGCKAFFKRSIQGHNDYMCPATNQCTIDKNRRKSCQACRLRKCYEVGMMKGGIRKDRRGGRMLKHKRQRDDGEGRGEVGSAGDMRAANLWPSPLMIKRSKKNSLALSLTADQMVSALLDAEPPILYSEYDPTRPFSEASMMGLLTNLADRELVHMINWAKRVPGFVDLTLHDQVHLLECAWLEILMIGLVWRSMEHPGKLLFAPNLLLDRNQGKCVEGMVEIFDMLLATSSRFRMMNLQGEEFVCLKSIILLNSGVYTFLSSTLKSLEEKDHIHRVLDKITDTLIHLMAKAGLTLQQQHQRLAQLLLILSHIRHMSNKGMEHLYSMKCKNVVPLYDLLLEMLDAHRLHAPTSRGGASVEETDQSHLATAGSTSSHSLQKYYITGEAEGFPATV
As to the kind of experiment: Estrogen receptor downregulating activity (intranuclear EgR content in MCF-7). The class given is cell-based. The note with it: MCF-7 cells; for DC50: 2 days with compound, ER-EIA, read-out: IC50 (intranuclear EgR content). How it is done:
Tris(hydroxymethyl)aminomethane, dithiothreitol and glycerol were obtained from Nacalai Tesque. Protease inhibitor tablets were obtained from Boehringer Mannheim. Human breast cancer cell line MCF-7 was obtained from ATCC, fetal calf serum (FCS) from Hyclone, DMEM from Invitrogen, and PBS(−) from Nissui.
Tris-HCl buffer (1 mol/L, pH=7.4) was diluted 50-fold with distilled water to a concentration of 20 mmol/L (pH=7.4). To the diluted buffer, dithiothreitol and glycerol were added to give respective final concentrations of 1 mmol/L and 10%. Further, protease inhibitor tablets were added, with one tablet per 50 mL of buffer. The thus conditioned solution was used as a solubilizing buffer.
Samples for quantitating the intranuclear estrogen receptor (EgR) were prepared by the following procedure. MCF-7 cultivated in 5% FCS/DMEM was sown on 6-cm dishes at a concentration of 4×10^5 cells/dish and cultivated for 3 days; cultivation was continued for an additional 2 days in the presence of compound 1 or compound 2 at final concentrations of 1-100 nmol/L or in the presence of compound 4 at final concentrations of 1-1,000 nmol/L or compound 5 at final concentrations of 1-10,000 nmol/L. Thereafter, the cells were washed with PBS(−), mixed with the solubilizing buffer, subjected to two cycles of freezing at −80° C. and thawing at room temperature, and centrifuged at 4° C. for 10 minutes at 4000 rpm (centrifuge: TOMY, Model MX-150). To the precipitation, the solubilizing buffer containing 500 mmol/L of NaCl was added and the mixture was treated with a micro-tube mixer (TOMY, Model MT-360) at 4° C. for about 30 minutes. Following centrifugation at 4° C. for 30 minutes at 15,000 rpm (centrifuge: TOMY, Model MX-150), the supernatant was collected and stored at −80° C. as an extracted nuclear sample. The EgR content in the extracted nuclear sample was measured with an EgR assay kit (ER-EIA “ABBOT” of Dynapot).

Data set [4] deals with bone marrow derived osteoclast precursor cells. The experiment in a line: Differentiation of bone marrow derived osteoclast precursor cells into mature osteoclasts (TRAP staining). The class given is cell-based, ddY mice. As to conditions: mean ± SD, n=3, 48-well plates. As for the experimental part:
Bone marrow cells separated from the vertebrae of ddY mice (male, 7-9 week old) were cultivated on cell culture plates for 3 days in the presence of a macrophage colony-stimulating factor (M-CSF, 10 ng/ml). The suspended cells were washed with PBS and removed whereas the cells adhering to the plates were used as osteoclast precursor cells. Following the addition of more M-CSF (10 ng/ml) and a soluble RANK ligand (sRANKL, 40 ng/ml), the precursors were cultivated for 3-4 days in order to induce the maturation of osteoclasts. Before this cultivation, either compound 1 or a solvent (ethanol) alone was added in order to see what effects they would have. The maturation of osteoclasts was evaluated by staining the cultivated cells with a tartrate resistant acid phosphatase (TRAP) and counting the number of trinuclear and higher TRAP stained cells. Table 1 and FIG. 1 show the mean and SD values for the experiment in which the number of mature osteoclasts that were produced per well in 48-well plates was evaluated for n=3.

Data set [5] is described as follows: AUC measurement in oral administration, test with monkeys. As to conditions: female, cynomolgus monkey, 3 mg/kg, PEG/water/ethanol solution, plasma. The class given is in vivo. As for the experimental part: as §1
A PEG/water/ethanol [8/4/3 (v/v)] solution (3 ml/kg) of a test substance (3 mg/kg) was administered orally into cynomolgus monkeys (female, 3-5 years old, 2.5-4 kg) through a catheter inserted from the nostrils into the stomach and about 1 ml of blood was taken over a period of 48 hours at specified time intervals (15 minutes, 30 minutes, and 1, 2, 4, 6, 8, 10, 24 and 48 hours). The concentration of the test substance in the sampled plasma was measured by use of LC/MS/MS (ESI, eluant: acetonitrile/water) and AUC was determined by moment analysis. The test substances were compound 1 and compound 4. The second component prepared in step 1 of Example 1 was used as control compound 1.

The test system of a further data set is breast cancer. As to conditions: cited from earlier work.

For `C[C@]12CC[C@@H]3c4ccc(O)cc4C[C@@H](CCCCCCCCC(CCCC(F)(F)C(F)(F)C(F)(F)C(F)(F)F)C(=O)O)[C@H]3[C@@H]1CCC2=O` (single isomer, unassigned) [Compound 1, 10-(3-hydroxy-17-oxo-estra-1,3,5(10)-trien-7α-yl)-2-(4,4,5,5,6,6,7,7,7-nonafluoroheptyl)decanoic acid], in data set [1], the “Percent suppression (%) of the increase in the weight of the uterus” value (from here on “Percent suppression (%) of the increase”) was found to be 96%. Moreover, the results for the AUC(0-inf) in data set [2] and in data set [5] were 468 µg·h/mL and 2.42 µg·h/mL, respectively. In addition, the “Intranuclear EgR content (in words)” value in data set [3] is “reduced the intranuclear EgR content in a dose-dependent manner”. The DC50 in data set [3] worked out at 8.4 nM. Besides, the “No. of mature osteoclasts per well” value in data set [4] (M-CSF + sRANKL + compound at 10^−4 mol/L) stood at 0 ± 0; in data set [4] (M-CSF + sRANKL + compound at 10^−5 mol/L), 34 ± 10.

As for `C[C@]12CC[C@@H]3c4ccc(O)cc4C[C@@H](CCCCCCCCC(CCCC(F)(F)C(F)(F)C(F)(F)C(F)(F)F)C(=O)O)[C@H]3[C@@H]1CCC2=O` (single isomer, unassigned) [Compound 2, 10-(3-hydroxy-17-oxo-estra-1,3,5(10)-trien-7α-yl)-2-(4,4,5,5,6,6,7,7,7-nonafluoroheptyl)decanoic acid], the “AUC∞” value in data set [2] worked out at 722.55 µg·h/mL. Also, in data set [3], the “Intranuclear EgR content (in words)” value is “reduced the intranuclear EgR content in a dose-dependent manner” and the DC50 was determined as 8.7 nM.

With `C#C[C@]1(O)CCC2C3C(CC[C@@]21C)c1ccc(O)cc1C[C@H]3CCCCCCCCC(CCCC(F)(F)C(F)(F)C(F)(F)C(F)(F)F)C(=O)O` (single isomer, unassigned) [Compound 4, 10-(3,17β-dihydroxy-17α-ethynyl-estra-1,3,5(10)-trien-7α-yl)-2-(4,4,5,5,6,6,7,7,7-nonafluoroheptyl)decanoic acid], the “Percent suppression (%) of the increase” value in data set [1] (10 mg/kg) is given as 94%. In addition, in data set [2], the “AUC∞” value came out at 202.10 µg·h/mL. In data set [3], the “Intranuclear EgR content (in words)” value is “reduced the intranuclear EgR content in a dose-dependent manner” and the DC50 was 14 nM. For the same molecule, in data set [5], the AUC(0-inf) (as a rule, the area under the concentration-time curve extrapolated to infinity) is 3.8 µg·h/mL.

On to `C#C[C@]1(O)CCC2C3C(CC[C@@]21C)c1ccc(O)cc1C[C@H]3CCCCCCCCC(CCCC(F)(F)C(F)(F)C(F)(F)C(F)(F)F)C(=O)O` (single isomer, unassigned) [Compound 5, 10-(3,17β-dihydroxy-17α-ethynyl-estra-1,3,5(10)-trien-7α-yl)-2-(4,4,5,5,6,6,7,7,7-nonafluoroheptyl)decanoic acid], for which the “Percent suppression (%) of the increase” value in data set [1] (10 mg/kg) amounted to 96%. Further, in data set [2], the “AUC∞” value stood at 661.00 µg·h/mL. Also, in data set [3], the “Intranuclear EgR content (in words)” value is “reduced the intranuclear EgR content in a dose-dependent manner” and the DC50 is 100 nM.

Take `C[C@]12CC[C@@H]3c4ccc(O)cc4C[C@@H](CCCCCCCCC(CCCC(F)(F)C(F)(F)C(F)(F)C(F)(F)F)C(=O)O)[C@H]3[C@@H]1CC[C@@H]2O` (single isomer, unassigned) [Control compound 1, 10-(3,17β-dihydroxyestra-1,3,5(10)-trien-7α-yl)-2-(4,4,5,5,6,6,7,7,7-nonafluoroheptyl)decanoic acid, reference compound]: the AUC(0-inf) is 274 µg·h/mL in data set [2] and 0.42 µg·h/mL in data set [5].

Consider `C[C@]12CC[C@@H]3c4ccc(O)cc4C[C@@H](CCCCCCCCC(CCCC(F)(F)C(F)(F)C(F)(F)C(F)(F)F)C(=O)O)[C@H]3[C@@H]1CC[C@@H]2O` (single isomer, unassigned) [Control compound 2, 10-(3,17β-dihydroxyestra-1,3,5(10)-trien-7α-yl)-2-(4,4,5,5,6,6,7,7,7-nonafluoroheptyl)decanoic acid, reference compound], for which the “AUC∞” value in data set [2] came to 469.73 µg·h/mL.

Regarding `C[C@]12C[C@H](CCCCCCCCC(CCCC(F)(F)C(F)(F)C(F)(F)C(F)(F)F)C(=O)O)[C@@H]3c4ccc(O)cc4CC[C@H]3[C@@H]1CCC2=O` (stereo partly drawn) [Compound 3, 10-(3-hydroxy-17-oxo-estra-1,3,5(10)-trien-11β-yl)-2-(4,4,5,5,6,6,7,7,7-nonafluoroheptyl)decanoic acid], the “Percent suppression (%) of the increase” value in data set [1] is 99%.

As for `C[C@]12CC[C@@H]3c4ccc(O)cc4C[C@@H](CCCCCCCCC[S+]([O-])CCCC(F)(F)C(F)(F)F)[C@H]3[C@@H]1CC[C@@H]2O` (stereo partly shown) [Faslodex], the “Objective response rate and duration of response to breast cancer” value in the data set on breast cancer (clinical tests, versus a SERM drug and an aromatase inhibitor) is “superior to a SERM drug and an aromatase inhibitor”. Besides, the “Efficacy against tamoxifen-resistant breast cancer” value in the data set with breast cancer (tamoxifen-resistant breast cancer) is reported as “effective against tamoxifen-resistant breast cancer”.

(Values after patent US20060063944A1, “Estrone derivatives and process for producing same” (CHUGAI SEIYAKU KABUSHIKI KAISHA, priority 2002, published 2006).)
